Results taken from US20130039871A1, “AQUEOUS COMPOSITION CONTAINED IN CONTAINER” (KAO CORPORATION, priority 2010, published 2013).

Test: Test 1-3: water evaporation rate of aqueous composition in open dish
Assay type: physicochemical
Conditions: Test 2
Experimental: Five grams of each of samples 1 to 15 having components shown in Table 1 were placed in respective dishes having an opening area of 13.85 cm^2 and were left at a humidity of 30% and a temperature of 30° C. Changes in weight of each sample were measured 1, 3, 5, 7, 12, 18, and 24 hr later. The slope of the changes in weight, the n of nX+m (X represents time (hr)) calculated by a least-squares method, was defined as the water evaporation rate (unit: mg/h), and the absolute value thereof was plotted. The test was conducted three times for each sample, and the average value thereof was determined. Note that a lower water evaporation rate means higher inhibition of evaporation.
Changes in weight of samples 15 to 25 shown in Table 3 were measured under the same conditions as in Test 1, and water evaporation rates were determined.
Changes in weight of samples of Examples 1 to 7 and Comparative Examples 1 to 7 having components shown below were measured under the same conditions as in Test 1, and water evaporation rates were determined. In addition, viscosities at 25° C. were measured with a B-type viscometer (Vismetron viscometer: model VS-A1, Rotor No. 1, 12 rotations, 30 sec).

Substance: polyoxyethylene(2) behenyl ether [polyoxyethylene behenyl ether]
- Amount showing a high water-evaporation inhibiting effect: ≥ 0.2 % by mass
- Amount showing a water-evaporation inhibiting effect: ≥ 0.1 % by mass
